In a melting point compilation (Tetko et al.; mined from patent text by program, amines drawn as free bases though some values may be those of a salt):

melting point [°C]	SMILES
88 to 89	COc1ccc(Cl)cc1S(=O)(=O)N(C)c1ccccc1
252 to 254	Cc1[nH]c(C(=O)SCC(=O)O)nc1-c1cc(C(C)(C)C)c(O)c(C(C)(C)C)c1
165 to 168	CC(C)N1C(=O)NC(c2ccccc2)c2cc3c(cc21)OCO3 (stereo unspecified)
167	CCCCCCC1C(=O)NC2(C(O)C3CCCCC3)C(=O)OC12C (stereo unspecified)
258	Oc1noc2ncccc12
207 to 209	CCOC(=O)c1cn(Cc2ccc(F)cc2)c2ccc(C(C)=O)cc2c1=O
211 to 212	CCOC(=O)C1=Cc2cc(C#N)ccc2NC1C(F)(F)F (stereo unspecified)
156 to 158	CSc1ccc(Oc2ccc(Cl)c(Cl)c2)nc1C#N
120 to 123	COc1ccc(-c2c(C)c(NC(=O)CC(C)(C)C)c(C)c3c2OCC3c2ccc(C(C)C)cc2)cn1 (stereo unspecified)
76 to 78	COc1cccc(COc2cc3c(cc2-c2cc(C=CC(=O)O)ccc2OC)C(C)(C)CCC3(C)C)c1
154 to 156	COc1ccc2cccc(CC(=O)O)c2c1
> 230	CSc1nn2c(N)cc(C)nc2c1S(=O)(=O)c1ccc(Br)cc1
128 to 132	CC(=O)Nc1ccc(C(=O)N2CCOCC2)cc1[N+](=O)[O-]
86 to 88	O=C(Cl)N1CCC1Oc1ccc(C(F)(F)F)cc1Cl (stereo unspecified)
279 to 281	COc1cc(Nc2ncc(-c3cccc([N+](=O)[O-])c3)o2)ccc1-c1cnco1
110 to 111	CCOC(=O)C1=C(CO)NC(C(F)(F)F)=C(C(=O)OCC)C1c1cccc2nonc12 (stereo unspecified)
162 to 164	C#CCn1c(-c2ccc(OC)cc2)c([N+](=O)[O-])c2ccc(OC)cc2c1=O
112 to 114	COCCOc1c(S(C)(=O)=O)ccc(C(=O)c2cnn(C)c2O)c1C
150	O=C(NCc1ccc(Cl)c(Cl)c1)c1ccc2n1Cc1ccccc1N(C(=O)CSc1ccc(Br)cc1)C2
192 to 193	CCOC(=O)/C=C/c1cnc2c(c1)C(=O)N(C)c1ccc(Cl)nc1N2CC
188 to 189	Nc1cc(-c2ccoc2)ccc1Nc1cccc(-n2ccnc2)c1
88 to 89	COC(=O)CCc1ccc(OCCC2Oc3ccccc3N(Cc3cccc(Cl)c3)C2=O)cc1 (stereo unspecified)

melting point [°C]	SMILES
152 to 155	CN1C(O)=C(C(=O)Nc2ccccc2Cl)c2cscc2S1(=O)=O
171	O=c1c2ccccc2nnn1CCN1CCC(c2c[nH]c3ccccc23)CC1
155 to 158	O=C(O)c1ccc(NC(=O)C(CC2CCCC2)c2ccc(-c3cccc4ccccc34)cc2)nc1 (stereo unspecified)
170 to 171	CN(Cc1ccc(NC(=O)C2=Cc3cc(-c4ccc(N5CCCCC5)cc4)ccc3CCC2)cc1)C1CCOCC1
90 to 100	Clc1ccc(C2=NNCC2)cc1
45 to 46	CCOc1ccc(OCc2ccccc2)c(C(=O)OC)n1
185 to 191	COC(=O)c1ccc(-c2nnc(-c3ccc(OC(F)(F)C(F)(F)F)cc3)o2)cc1
199	O=Cc1c2ccccc2cc2c1sc1ccccc12
119 to 121	CS(=O)(=O)N[C@@H]1CCCC[C@H]1OCC(=O)O (relative stereo)
147 to 148	Cc1nc2n(CCN3CCOCC3)c3ccccc3n2c1C(=O)c1ccc(Cl)cc1
246 to 249	Nc1ccc(CN2CCNC(=O)C2=O)cc1
130 to 131	CCOCc1nc2c(N)nc3ccccc3c2n1C[C@H]1COC(C)(C)O1
76 to 78	CCCCCCCCSc1ccc(CC(CO)(CO)NC(C)=O)cc1
62 to 63	CCC(=O)OCC(OC(=O)CC)C1OC(SC)C(OC(=O)CC)C1OC(=O)CC (stereo unspecified)
100 to 102	CN(C)c1c(C#N)c(N)nn1C
212 to 213	CC1(C)Oc2ccc(OC(F)(F)F)cc2[C@@H](N2Cc3ccccc3C2=O)[C@@H]1O (relative stereo)
147	CCOc1cccc(C)c1N(C(=O)n1nc(OCC)n(C)c1=O)S(N)(=O)=O
113 to 114	COC(=O)N1CCc2cc(S(=O)(=O)Cl)ccc21
141 to 143	CNc1ccc(C)cc1C(=O)Cc1nnnn1C
137 to 138	CC(C)(C)C(=O)Nc1ccncc1-c1noc2ccccc12
215 to 217	O=c1[nH]c2ccsc2c(=O)n1CCN1CCN(c2ccccc2)CC1
185 to 186	CCOC1CCC(=O)N1S(=O)(=O)c1ccc(N)cc1 (stereo unspecified)

melting point [°C]	SMILES
196 to 199	CCN(CC)CC=CC(=O)Nc1ccc2ncnc(Nc3cccc(Br)c3)c2c1
91 to 92	COc1cc2c(cc1Cl)CCN(C)C[C@H]2c1ccccc1
130 to 132	CCc1nc2c(cnn2CC)c(NC2CCOCC2)c1CNC(=O)c1cc(C)cc(C(=O)NCc2cccc(-c3cccc(CC4CCNCC4)c3)c2)c1
129 to 130	CNc1c([N+](=O)[O-])cc(C(C)(C)C)cc1[N+](=O)[O-]
89 to 95	O=c1oc2c(c(O)c1C(c1ccccc1)C1CC1)CCCCCC2CC1CCCOC1 (stereo unspecified)
86 to 89	CCN(CC)C(=O)c1ccc2ccccc2c1/C=C/c1ccccc1
150 to 152	Cn1nc(-c2ccncc2)n(C)c1=S
195 to 197	O=C1C(=O)c2ccccc2C2=C1SCC1(CCOCC1)O2
295 to 297	CN1CCC(c2c(O)cc(O)c3c(=O)cc(-c4ccccc4Cl)oc23)C1C(=O)O (stereo unspecified)
140 to 141	Cc1sc(-c2ccccc2)nc1COc1ccc(COc2nn(C)cc2CC(=O)O)cn1
204 to 206	O=CNNc1ccc(NC(=S)N2CCOCC2)cc1
112 to 113	CC(C)(C)OCC1CN(c2ccc3ccccc3c2)C(=O)O1 (stereo unspecified)
156 to 158	Oc1cc2c(Cl)cc(Br)cc2cc1Br
128 to 130	CCOC(=O)c1sc2ccc(O)c(C=O)c2c1Cl
110	O=S(=O)(CC(O)(CCl)c1ccccc1)c1ccccc1 (stereo unspecified)
249 to 251	O=C(O)c1ccc(COCc2csc3nc(C(=O)NCc4ccc(F)c(F)c4)[nH]c(=O)c23)cc1
197 to 207	COc1ccc(C(=CC(=O)N2CCOCC2)c2ccc(NC(=O)c3ccc(Cl)cc3)cc2)cc1OC
176 to 177	CC(C)(C)OC(=O)Nc1ccc(-c2ccc(OCc3ccccc3)nc2)cc1N
136	CCOC(=O)c1ccc(Cn2c(NC3CCN(C(=O)OCC)CC3)nc3ccccc32)o1
39 to 42	CCCCCOC(=O)C1CC(Br)=NN1c1ncccc1Cl (stereo unspecified)

SMILES	melting point [°C]
N#Cc1nn(-c2c(Cl)cc(C(F)(F)F)cc2Cl)c(Cl)c1I	116
O=C1CC(Cc2ccc(F)cc2)CN1 (stereo unspecified)	88.5 to 90
CN(SC(C)(C)C(=O)c1ccccc1)C(=O)ON=C1SC(C)(C)C(=O)N1C	98 to 100
CC(C)CCCC(C)C1CCC2C3CC=C4CC(OC(=O)NCC(=O)N(CCCl)CCCl)CCC4(C)C3CCC12C (stereo unspecified)	98 to 100
CN(C)C(=O)Oc1ccc2c(c1)[nH]c(=O)c1c3ccc(OC(=O)N(C)C)cc3oc21	255 to 269
N#Cc1ccc(N2C(=O)NC3(CCCCC3)C2=O)cc1C(F)(F)F	187
CN1C(=O)C2(CCN(CC(O)C3COc4ccccc4O3)CC2)c2ccccc21 (stereo unspecified)	113 to 128
